Test results: patent EP0429372A1, “2-Azolyl nicotinate derivatives as herbicides” (RHONE-POULENC AGROCHIMIE, priority 1989, dated 1991)
Where two headings read alike, the source gives them in different places.

Experiments:
Format in all cases: in vivo
[1] = test system: mauvaises herbes; experiment: Procedure 1 b): weed control, pre-emergence application; conditions: 4000 g/ha (procédé 1B), visual rating 17 to 20 days after spraying, vs control pots
Excerpt: (§1) Des quantités appropriées des composés d'essai ont été dissoutes dans de l'acétone pour obtenir des solutions équivalant à des taux d'application de 250, 1000 ou 4000 g de composé d'essai par hectare (g/ha).
Des graines de mauvaises herbes ont été semées à la surface de compost de mise en pot John Innes N°1 (7 parties par volume de terre végétale stérilisée, 3 parties en volume de gravier fin) dans des pots en matière plastique de 70 mm de côté et 75 mm de profondeur. Les quantités de graines par pot étaient les suivantes :
Les composés de la présente invention ont été appliqués aux graines non recouvertes de la manière décrite dans le paragraphe (a) ci-dessus et ces graines ont été recouvertes avec 25ml de sable liant après pulvérisation. Un seul pot de chaque espèce de mauvaise herbe a été attribué à chaque traitement, en association avec des témoins n'ayant pas subi de pulvérisation et des témoins ayant subi une pulvérisation avec de l'acétone seule. Après traitement, les pots ont été maintenus dans une serre et ont été arrosés par aspersion. L'évaluation visuelle de l'activité de destruction des mauvaises herbes a été effectuée 17 à 20 jours après pulvérisation. Les résultats ont été exprimés par le pourcentage de réduction de croissance ou de mortalité des mauvaises herbes, comparativement aux plantes présentes dans les pots témoins.

[2] = test system: mauvaises herbes; conditions: post-emergence
Excerpt: as §1
Des espèces de mauvaises herbes ont été cultivées, puis transplantées au stade de jeunes plants de semis dans du compost de mise en pot John Innes N°1 dans des pots en matière plastique de 70 mm de côté et 75 mm de profondeur, sauf en ce qui concerne Avena fatua, qui a été semée directement dans le pot d'essai et n' a pas été transplantée. Puis les plantes ont été cultivées dans la serre jusqu'à ce qu'elles soient prêtes à subir une pulvérisation avec les composés d'essai. Le nombre de plantes par pot et la croissance de la plante au moment de la pulvérisation étaient les suivantes :
Les composés d'essai ont été appliquées aux plantes de la manière décrite dans le paragraphe (a) ci-dessus. Un seul pot de chaque espèce de mauvaises a été attribué à chaque traitement, en association avec des témoins n'ayant pas subi de pulvérisation et des témoins ayant subi une pulvérisation avec de l'acétone seule. Après pulvérisation, les pots ont été arrossés par aspersion, en commençant 24 heures après pulvérisation. L'évalutation visuelle de la lutte contre la croissance des mauvaises herbes a été effectuée 17 à 20 jours après pulvérisation. Les résultats ont été exprimés en pourcentage de réduction de croissance ou de mortalité des mauvaises herbes, comparativement aux plantes présentes dans les pots témoins.

[3] = test system: Digitaria sanguinalis; experiment: Example B: post-emergence herbicidal application, pot test; conditions: 1000 g/ha, 576 h
Excerpt: (§2) Dans des pots de 7 x 7 x 8 cm remplis de terre agricole légère, on sème un nombre de graines déterminé en fonction de l'espèce végétale et de la grosseur de la graine.
(§3) On recouvre ensuite les graines d'une couche de terre d'environ 3 mm d'épaisseur et on laisse germer la graine jusqu'à ce qu'elle donne naissance à une plantule au stade convenable. Le stade de traitement pour les graminées est le stade "deuxième feuille en formation ". Le stade de traitement pour les dicotylédones, est le stade "cotylédons étalés, première feuille vraie en développement".
(§4) Les pots sont alors traités par pulvérisation de bouillie en quantité correspondant à une dose volumique d'application de 500 l/ha et contenant la matière active à la concentration désirée.
(§5) La bouille a été préparée de la même manière qu'à l'exemple A.
(§6) Les pots traités sont ensuite placés dans des bacs destinés à recevoir l'eau d'arrosage, en subirrigation, et maintenus pendant 24 jours à température ambiante sous 70 % d'humidité relative.
(§7) Au bout de 24 jours, on mesure un pourcentage (D) de destruction du nombre de pieds dans le pot traité par rapport au nombre de plantes dans les pots non traités (témoin). On mesure, sur les plantes traitées restantes, le pourcentage de réduction de taille (RT) par rapport aux plantes témoin.
(§8) Le pourcentage du volume foliaire non détruit par le produit est donc donné par la formule : [formula]
(§9) Cette valeur A est transformée en notation de 0 à 5 selon l'échelle suivante :
(§10) Les résultats obtenus sont présentés après le tableau A pour des doses d'application de 4000 g/ha.

[4] = test system: Echinochloa crusgalli; experiment: as above; conditions: 1000 g/ha, 576 h
Excerpt: as §2, §3, §4, §5, §6, §7, §8, §9, §10

[5] = test system: Ipomea purpurea; experiment: as above; conditions: 1000 g/ha, 576 h
Excerpt: as §2, §3, §4, §5, §6, §7, §8, §9, §10

[6] = test system: Solanum nigrum; experiment: as above; conditions: 1000 g/ha, 576 h
Excerpt: as §2, §3, §4, §5, §6, §7, §8, §9, §10

[7] = test system: Ipomea pupurea; experiment: Example C: selectivity test in major crops, post-emergence application; conditions: 1000 g/ha, 576 h
Excerpt: as §2
as §3, with “formation".” for “formation ".”
as §4
(§11) La bouillie a été préparée de la même manière qu'à l'exemple A.
as §6, §7
(§12) Le pourcentage de volume foliaire non détruit par le produit est donc donné par la formule : [formula]
as §9
(§13) Ainsi, un produit est jugé comme sélectif vis à vis de la culture lorsque la valeur A notée est de 0 ou 1.
(§14) Les résultats obtenus sont présentés dans l'exemple C pour des doses d'application comprises entre 0,5 et 4 kg de matière active par hectare selon les produits.

[8] = test system: Oryza sativa; experiment: as above; conditions: crop (Riz), dose 1 kg/ha, 24 days, score 0-5, 0 or 1 = selective; also: ranges in brackets are in %
Excerpt: as §2
as §3, with “formation".” for “formation ".”
as §4, §11, §6, §7, §12, §9, §13, §14

[9] = test system: Sesbania exaltata; experiment: as above; conditions: 1000 g/ha, 576 h
Excerpt: as §2
as §3, with “formation".” for “formation ".”
as §4, §11, §6, §7, §12, §9, §13, §14

[10] = test system: Solanum nigrum; experiment: as above; conditions: 1000 g/ha, 576 h
Excerpt: as §2
as §3, with “formation".” for “formation ".”
as §4, §11, §6, §7, §12, §9, §13, §14

[11] = test system: Triticum aestivum; experiment: as above; conditions: crop (Blé), dose 1 kg/ha, 24 days, score 0-5, 0 or 1 = selective; also: ranges in brackets are in %
Excerpt: as §2
as §3, with “formation".” for “formation ".”
as §4, §11, §6, §7, §12, §9, §13, §14

[12] = test system: Viola tricolor; experiment: as above; conditions: 1000 g/ha, 576 h
Excerpt: as §2
as §3, with “formation".” for “formation ".”
as §4, §11, §6, §7, §12, §9, §13, §14

[13] = test system: Xanthium pennsylvanicum; experiment: as above; conditions: 1000 g/ha, 576 h
Excerpt: as §2
as §3, with “formation".” for “formation ".”
as §4, §11, §6, §7, §12, §9, §13, §14

[14] = test system: Zea mays; experiment: as above; conditions: crop (Maïs), dose 1 kg/ha, 24 days, score 0-5, 0 or 1 = selective; also: ranges in brackets are in %
Excerpt: as §2
as §3, with “formation".” for “formation ".”
as §4, §11, §6, §7, §12, §9, §13, §14

[15] = test system: Chrysanthemum segetum; conditions: post-emergence, 1000 g/ha, 576 h
Excerpt: as §2
as §3, with “formation".” for “formation ".”
as §4, §11, §6, §7, §12, §9, §13, §14

[16] = test system: Convolvulus arvensis; conditions: post-emergence, 1000 g/ha, 576 h
Excerpt: as §2
as §3, with “formation".” for “formation ".”
as §4, §11, §6, §7, §12, §9, §13, §14

[17] = test system: Polygonum convolvulus; conditions: 1000 g/ha, 576 h
Excerpt: as §2
as §3, with “formation".” for “formation ".”
as §4, §11, §6, §7, §12, §9, §13, §14

[18] = test system: Sinapis alba; experiment: Example B: post-emergence herbicidal application, pot test; conditions: 1000 g/ha, 576 h

Row | Structure (SMILES) | réduction de la croissance d'une ou plusieurs des espèces de mauvaises herbes [1] | réduction de la croissance d'une ou plusieurs des espèces de mauvaises herbes [2] | ACTIVITE DE POST-LEVEE DIG [3] | ACTIVITE DE POST-LEVEE ECH [4] | ACTIVITE DE POST-LEVEE IPO [5] | ACTIVITE DE POST-LEVEE SOL [6] | ACTIVITE HERBICIDE DE POST LEVEE I P O [7] | ACTIVITE HERBICIDE DE POST LEVEE O R Y [8] | ACTIVITE HERBICIDE DE POST LEVEE S E S [9] | ACTIVITE HERBICIDE DE POST LEVEE S O L [10] | ACTIVITE HERBICIDE DE POST LEVEE T R Z [11] | ACTIVITE HERBICIDE DE POST LEVEE V I O [12] | ACTIVITE HERBICIDE DE POST LEVEE X A N [13] | ACTIVITE HERBICIDE DE POST LEVEE Z E A [14] | ACTIVITE HERBICIDE DE POST LEVEE C H Y [15] | ACTIVITE HERBICIDE DE POST LEVEE C O N [16] | ACTIVITE HERBICIDE DE POST LEVEE P O L [17] | ACTIVITE DE POST-LEVEE SIN [18]
1 | CN(C)S(=O)(=O)n1c(-c2ncccc2C(=O)O)nc2cc(OC(F)(F)F)ccc21 [compound 92] | ≥ 90% | ≥ 90% | – | – | – | – | – | – | – | – | – | – | – | – | – | – | – | –
2 | CN(C)S(=O)(=O)n1c(-c2ncccc2C(=O)OCC(F)(F)F)nc2ccccc21 [compound 100] | ≥ 90% | ≥ 90% | – | – | – | – | – | – | – | – | – | – | – | – | – | – | – | –
3 | CN(C)S(=O)(=O)n1c(-c2ncccc2C(=O)O)nc2ccccc21 [compound 122] | – | – | 1 (70 à 90) | 2 (50 à 70) | 4 (10 à 30) | 5 (O à 10) | 5 (O à 10) | 0 (90 à 100) | 5 (O à 10) | 5 (O à 10) | 0 (90 à 100) | 3 (30 à 50) | 5 (O à 10) | 0 (90 à 100) | 5 (O à 10) | 5 (O à 10) | 5 (O à 10) | 5 (O à 10)
